# Source: US5236955A, “Anti-fungal agent” (Washington University, priority 1992, dated 1993)
# Read-outs that look alike come from different tables or passages of the source.
# How the values were obtained:
# HIV-1 = details: acutely infected human T lymphocyte cell line; cited from earlier work
# [1] = system: C. albicans N-myristoylproteins; test: Metabolic labeling of cellular N-myristoylproteins with tritiated fatty acids; assay type: cell-based; details: tritiated analog, 1 h, 30° C.
# Protocol: (§1) Cells were labeled for 1 h with fatty acids of equal specific activity. Total cellular proteins were reduced, denatured and subjected to SDS-PAGE. Gels were treated overnight with 1 N hydrocylamine (pH 10) at room temperature followed by EN^3 HANCE. Fluorography was performed at -80° C. The exposure time for all gels was identical (2 weeks) as was the total amount of cellular protein added to each lane (100 μg).
# (§2) Analysis of the incorporation of exogenous fatty acids into cellular proteins--Cultures of S. cerevisiae YM2061, C. albicans B311, and C. neoformans L210425 were grown overnight at 30° C. in YPD or SAB broth. In the morning, C. albicans and C. neoformans were diluted to an A600 =0.6. All cultures were subsequently shaken at 30° C. until they achieved an A600 =1.2. A 5 ml aliquot of each culture was then incubated at 30° C. with 100 μCi/ml of either [9,10(n)^3 H]myristate (NEN Research Products, Dupont, Boston, Mass.); [6,7(n)^3 H]4-oxatetradecanoate; [9,10(n)^3 H]6-oxatetradecanoate;[9,10(n)^3 H]11-oxatetradecanoate; or [10,11(n)^3 H]13-oxatetradecanoate (the final specific activity of all tritiated fatty acids=30 Ci/mmol, their final concentration=3.3 μM). The cultures were then chilled on ice for 5 min and the cells harvested by centrifugation at 4000×g for 5 min. The pellet was washed by gentle vortexing in 1 ml of phosphate buffered saline (PBS, maintained at 4° C.). The yeast cells were then pelleted by centrifugation (as above) and broken open by vortexing with 500 μm glass beads in a 200 μl solution containing 240 mM Tris-HCl, pH 6.8, 2% SDS, 0.4% β-mercaptoethanol, 0.002% bromophenol blue, and 10% glycerol. The solution was then boiled for 5 min and cellular debris was removed by centrifugation at 12,000×g for 10 min. One hundred μg [Lowry et al., J. Biol. Chem. 193, 265-275 (1951)] of lysate protein from each sample was subjected to denaturation, reduction and electrophoresis through 12% polyacrylamide gels containing 0.1% SDS [Laemmli, Nature 227, 680-685 (1970)]. Duplicate gels were incubated overnight with 1M Tris, pH 7.4, or 1N hydroxylamine, pH 10. Fluorography was performed by treating gels with EN^3 HANCE (NEN Research Products, Dupont) and, following drying, exposing them to Kodak XAR film at -80° C.
# [2] = system: C. neoformans N-myristoylproteins; test: as above; assay type: cell-based; details: tritiated analog, 1 h, 30° C.
# Protocol: as §1, §2
# [3] = system: S. cerevisiae N-myristoylproteins; test: as above; assay type: cell-based; details: tritiated analog, 1 h, 30° C.
# Protocol: as §1, §2
# C. neoformans = test: Viability of C. neoformans (viable cells relative to EtOH control culture); assay type: cell-based, Cryptococcus neoformans; details: for log reduction at 300 µM: Cryptococcus neoformans
# Protocol: Panel A, survey of the effects of several oxatetradecanoic acids on the growth of C. neoformans. A culture of C. neoformans was grown at 30° C. in SAB media to midlog phase (A600 ~0.5). A single dose of fatty acid was then added to subcultures (final concentration=300 μM). EtOH(0.1%) was used as a negative control. Amphotericin B (AmB) was added (final concentraton=55 μM) as a positive control. Aliquots were withdrawn from the subcultures 0, 0.5, 2, 4, 7, 21, and 24 h after these additions and then absorbance at 600 nm was measured. All assays were done in duplicate or triplicate. A representative test is shown. Panel B, survey of the effects of oxatetradecanoic acids, dioxatetradecanoic acids and oxatridecanoic acids on the viability of C. neoformans. Fatty acid analog was added to the cultures as in Panel A. Aliquots were withdrawn 0.5, 2, 4, 7 or 8, and 24 h later and plated on SAB-agar at various dilutions to determine the number of viable organisms/ml culture. All assays were done in duplicate. Data from a representative test are expressed as the ratio of viable cells in treated cultures relative to a control culture that received 0.1% EtOH. A positive control culture received a single dose of amphotericin B (55 μM); Panel C, dose-dependent reduction in the viability of C. neoformans after addition of 4-oxatetradecanoic acid (O4) to cultures during log-phase growth at 30° C. in SAB. A single dose of the analog was given at T=0 h in the amount indicated and aliquots of the culture were withdrawn at various times to determine the number of viable cells. All assays were done in triplicate. A representative test is shown.
# Saccharomyces cerevisiae strain YM2061 (MATa ura3-52 his3Δ200 ade2-101 lys2-801 met LEU2::pRY181 can1; Flick and Johnston, Mol. Cell. Biol. 10, 4757-4769 (1990), Candida albicans strain B311 (obtained from the American Type Tissue Culture, Rockville, Md.), or Cryptococcus neoformans strain L210425 (a clinical isolate that is part of the permanent culture collection of the Mycology Laboratory, Barnes Hospital, St. Louis, Mo.) were grown overnight at 30 C. The S. cerevisiae strain was incubated in YPD medium (1% bacto-yeast extract, Gibco, Long Island, N.Y.), 2% bacto-peptone (Gibco), 2% dextrose). The C. albicans and C. neoformans strains were grown in Sabouraud's media (SAB; 2% (w/v) dextrose, 1% bacto-peptone). The following morning the cultures were diluted into fresh medium to the desired density at 600 nm (early log phase), and subsequently incubated in a rotary shaker at 30° C. until an A600 =0.5 (mid log phase) was achieved. The culture was then divided into 10 ml aliquots. A single 10 μl aliquot of a stock solution of fatty acid analog (prepared in various concentrations using absolute ethanol) was added to the culture so that the final concentration of the compound was 100-500 μM (T=0). Ten microliters of ethanol alone was added to one 10 ml culture which served as the negative control. Amphotericin B (AmB; in the form of Fungizone, Squibb) was added (final concentration=55 μM) to another culture which served as the positive control. At T=0 and 0.5-24 h after addition of fatty acid analog to the subcultures, an aliquot was removed for determining the density of the subculture at 600 nm. Cell viability was determined at each of these time points by (i) serially diluting the aliquot in 0.15M NaCl and counting cell number in a hemocytometer and (ii) plating 2-3 of the dilutions in triplicate onto plates of SAB/agar (C. albicans and C. neoformans) or YPD/agar (S. cerevisiae). These plates were subsequently incubated at 30° C. for 24-48 hr to allow for the growth of colonies. The data were expressed as the ratio of viable cells/ml in the fatty acid analog treated subculture to the number of viable cells/ml in the negative (ethanol) control culture.
compound,measurement,setting,value
"CCCCCCCCCCOCCC(=O)O [O4, 4-oxatetradecanoic acid]",HIV-1 replication,HIV-1,inhibits HIV-1 replication
same,labeling of C. albicans N-myristoylproteins versus [3H]myristate,[1],more intense labeling
same,labeling of C. neoformans N-myristoylproteins versus [3H]myristate,[2],comparable labeling
same,incorporation into the 55 kDa Gpal polypeptide,[3],is incorporated
same,labeling of S. cerevisiae N-myristoylproteins versus [3H]myristate,[3],more intense labeling
same,labeling of the 20 kDa Arfs,[3],comparable intensity
same,time needed to produce the decrease in viable cells,C. neoformans; 300 μM single dose,≤ 1 h
same,fungicidal / fungistatic effect on C. neoformans,"C. neoformans; 300 μM single dose, screening assay",fungicidal
same,log reduction at 300 µM,"C. neoformans; 300 μM single dose, relative to 0.1% EtOH control, read-out: decrease in viable cells (converted)",4
same,log reduction at 300 µM,"C. neoformans; 300 μM, between 1 and 7 h after treatment, read-out: further reductions in viable cell number",< 1
same,cell number after single dose,C. neoformans; between 8 and 24 hr after single dose,gradual increase in cell number
same,dose dependence of fungicidal activity,"C. neoformans; four doses, 100-300 μM",progressive reduction of viable cell number
